The text below walks through data of US20080090805A1, “CB-1 MODULATING COMPOUNDS AND THEIR USE” (ACADIA PHARMACEUTICALS INC., priority 2005, published 2008).

A word on the % Inhibition: it is the change of the read-out against control, counted positive when it falls. The pIC50 is the IC50 on a negative log10 scale, so that one unit is a factor of ten. Low readings indicate a large IC50, high ones a small IC50.

The target of this assay is CB1 (mutant) (Homo sapiens, UniProt P21554). Briefly: R-SAT functional receptor assay, CB1 (mutant, truncated after amino acid 417). The settings on record: R-SAT CB1; for IC50 / pIC50: receptor form (mutant or wild-type) not stated; for Emax / % Inhibition: receptor form not stated, relative to SR141716 (100%); for Emax: read-out: % Inhibition. The format is cell-based.
CB1 (mutant), sequence (P21554 1-417, change not shown): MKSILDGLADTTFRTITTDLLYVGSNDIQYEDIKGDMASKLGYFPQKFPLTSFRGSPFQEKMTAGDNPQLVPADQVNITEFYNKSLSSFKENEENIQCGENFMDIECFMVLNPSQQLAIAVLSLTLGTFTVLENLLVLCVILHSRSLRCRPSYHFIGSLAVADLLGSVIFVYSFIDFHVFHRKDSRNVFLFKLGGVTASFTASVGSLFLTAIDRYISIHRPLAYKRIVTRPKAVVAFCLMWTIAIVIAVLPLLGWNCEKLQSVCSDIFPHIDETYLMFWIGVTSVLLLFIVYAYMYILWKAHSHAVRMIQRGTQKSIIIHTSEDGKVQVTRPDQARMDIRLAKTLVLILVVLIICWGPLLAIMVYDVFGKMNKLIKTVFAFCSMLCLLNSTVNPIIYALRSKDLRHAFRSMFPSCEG

[1] abbreviates: Appendix A, read-out: pIC50 (converted).

Molecules are shown by their SMILES. Where two headings read alike, the source gives them in different places.

In the case of `O=C(NN1CCCCC1)c1ccc2c(c1)N=C(c1ccc(F)cn1)c1ccccc1S2` [drawing 660], the IC50 under setting [1] is 63.1 nM. Also, where the note is “Appendix A”, the Emax is 92%. With `O=C(NCc1ccco1)c1ccc2c(c1)N=C(c1cccc(F)c1)c1ccccc1S2` [drawing 693], for the setting “Appendix A”, the Emax turned out to be 104%. Besides, under “pIC50, Appendix A”, the IC50 is 6.31 nM.

Take `O=C(NCc1ccccc1)c1ccc2c(c1)N=C(c1ccccc1)c1ccccc1S2` [drawing 755]: under setting [1], the IC50 is 10 nM. The Emax (Appendix A) came to 111%. Consider `CCCC1=Nc2cc(C(=O)NC)ccc2Sc2ccccc21`, for which the IC50 under setting [1] is 501 nM. The Emax (Appendix A) is 119%. For `COc1ccc(C2=Nc3cc(C(=O)NN4[C@H](C)CCC[C@@H]4C)ccc3Sc3ccccc32)cc1` [drawing 730] the same measures were 79.4 nM and 99%. As to `O=C(NN1CCCCC1)c1ccc2c(c1)N=C(c1ccc(Cl)cn1)c1ccccc1S2` [drawing 959], the IC50 under setting [1] was 20 nM. The Emax (Appendix A) is 112%.

For `CCCCNC(=O)c1ccc2c(c1)N=C(c1ccc(Cl)cn1)c1ccccc1S2` [drawing 813], the IC50 under setting [1] is 10 nM. Also, the Emax (Appendix A) is 106%. For `O=C(NCc1ccccc1)c1ccc2c(c1)N=C(c1ccccc1F)c1ccccc1S2` [drawing 1015], the IC50 under setting [1] was 25.1 nM. For the same compound, the Emax (Appendix A) came to 96%. On to `CON(C)C(=O)c1ccc2c(c1)N=C(c1sccc1C)c1ccccc1S2`, for which the IC50 under setting [1] is 794 nM. Also, the Emax (Appendix A) was determined as 42%. For `O=C(NCc1ccncc1)c1ccc2c(c1)N=C(c1cccc(Br)c1)c1ccccc1S2` [drawing 977] the same measures were 20 nM and 95%. On the same counts, the results for `CCCCN(C)C(=O)c1ccc2c(c1)N=C(c1ccc(OC)cc1)c1ccccc1S2` are 100 nM and 97%. For `CCCCNC(=O)c1ccc2c(c1)N=C(c1ccccn1)c1ccccc1S2` [drawing 907] the same measures were 15.8 nM and 100%. Consider `CCCC1=Nc2cc(C(=O)NCCCN3CCN(c4cc(C)ccc4C)CC3)ccc2Sc2ccccc21`, for which, under setting [1], the IC50 is 316 nM. The Emax (Appendix A) was found to be 126%.

Regarding `Cc1ccsc1C1=Nc2cc(C(=O)NCC(C)C)ccc2Sc2ccccc21` [drawing 757], the IC50 under setting [1] was 10 nM. Besides, the Emax (Appendix A) worked out at 88%. On the same counts, the results for `CCCNC(=O)c1ccc2c(c1)N=C(c1cccc(F)c1)c1ccccc1S2` [drawing 893] are 15.8 nM and 109%. For `COc1ccccc1C1=Nc2cc(C(=O)NCC(C)C)ccc2Sc2ccccc21` the same measures were 158 nM and 91%.

For `CCOCCNC(=O)c1ccc2c(c1)N=C(c1ccc(C#N)cc1)c1ccccc1S2` [drawing 788], under setting [1], the IC50 is 100 nM. The Emax (Appendix A) is 74%.

Take `COCCNC(=O)c1ccc2c(c1)N=C(c1ccccc1Cl)c1ccccc1S2`: the IC50 under setting [1] was 794 nM. Moreover, for the setting “Appendix A”, the Emax was 62%. Regarding `CCCCNC(=O)c1ccc2c(c1)N=C(c1cccc(Cl)c1)c1ccccc1S2` [drawing 737], the IC50 under setting [1] is 7.94 nM. Besides, the Emax (Appendix A) is 98%.

Turning to `CC(CNC(=O)c1ccc2c(c1)N=C(c1ccccc1)c1ccccc1S2)c1ccccc1` (centres unmarked) [drawing 729], the IC50 under setting [1] is 7.94 nM. The Emax (Appendix A) amounted to 101%. As to `CC(C)CNC(=O)c1ccc2c(c1)N=C(c1ccc(F)cn1)c1ccccc1S2` [drawing 711], under setting [1], the IC50 is 7.94 nM. Besides, the Emax (Appendix A) was 113%. Consider `CC(C)CCNC(=O)c1ccc2c(c1)N=C(c1ccccn1)c1ccccc1S2` [drawing 967], for which the IC50 under setting [1] was 20 nM. As for `O=C(NNC(O)c1ccc2c(c1)N=C(c1cccc(Br)c1)c1ccccc1S2)c1ccccc1` (centres unmarked), the IC50 under setting [1] was 100 nM. Also, the Emax (Appendix A) was determined as 76%.

For the compound `O=C(NC1CCCC1)c1ccc2c(c1)N=C(c1ccccc1Cl)c1ccccc1S2`, under setting [1], the IC50 is 794 nM. Moreover, the Emax (Appendix A) stood at 59%. For `Cc1ccc(N2CCN(C(=O)c3ccc4c(c3)N=C(c3ccc(Cl)cc3)c3ccccc3S4)CC2)c(C)c1` [drawing 970] the same measures were 316 nM and 94%. On the same counts, the results for `CC(CNC(=O)c1ccc2c(c1)N=C(N1CCCCC1)c1ccccc1S2)c1ccccc1` (centres unmarked) [drawing 1017] are 25.1 nM and 105%. For the compound `CCCC1=Nc2cc(C(=O)NCCN(CC)CC)ccc2Sc2ccccc21`, the IC50 under setting [1] is 1580 nM. The Emax (Appendix A) worked out at 131%.

Regarding `O=C(NCCc1ccccn1)c1ccc2c(c1)N=C(c1cccc(Cl)c1)c1ccccc1S2` [drawing 999], the IC50 under setting [1] was 25.1 nM. Besides, where the note is “Appendix A”, the “% Inhibition” value turned out to be 91%. As for `O=C(NCc1cccc(Cl)c1)c1ccc2c(c1)N=C(c1ccc(F)cc1)c1ccccc1S2` [drawing 747], for the setting “Appendix A”, the pIC50 is reported as 8.1 and the “% Inhibition” value was found to be 106%. For the compound `O=C(NCCC(F)(F)F)c1ccc2c(c1)N=C(c1cccc(F)c1)c1ccccc1S2` [drawing 625], the IC50 under setting [1] was 5.01 nM. Further, the Emax (Appendix A) was 85%. For `Cc1ccc(CNC(=O)c2ccc3c(c2)N=C(c2cccc(F)c2)c2ccccc2S3)o1` [drawing 947], the Emax (Appendix A) worked out at 69%. Also, the IC50 (pIC50, Appendix A) is 20 nM.

Regarding `CCCNC(=O)c1ccc2c(c1)N=C(c1sccc1C)c1ccccc1S2` [drawing 927], under setting [1], the IC50 was 15.8 nM. Further, under “Appendix A”, the Emax worked out at 99%. For the compound `O=C(NCc1cccnc1)c1ccc2c(c1)N=C(NCc1ccc(Cl)cc1)c1ccccc1S2`, the IC50 under setting [1] was 501 nM. Also, the Emax (Appendix A) was 76%.

With `CCCCC1=Nc2cc(C(=O)NC3CCN(C(=O)OCC)CC3)ccc2Sc2ccccc21`, the IC50 under setting [1] was 501 nM. The Emax (Appendix A) came out at 96%.

With `CONC(=O)c1ccc2c(c1)N=C(c1cccc(Cl)c1)c1ccccc1S2`, under setting [1], the IC50 is 398 nM. Further, the Emax (Appendix A) was determined as 89%. For `O=C(NCCC(F)(F)F)c1ccc2c(c1)N=C(c1cccc(Cl)c1)c1ccccc1S2` [drawing 549] the same measures were 1.58 nM and 96%. For `CC(C)NC(=O)c1ccc2c(c1)N=C(c1ccccn1)c1ccccc1S2` the same measures were 794 nM and 60%. Take `O=C(NN1CCCCC1)c1ccc2c(c1)N=C(c1ccccc1F)c1ccccc1S2`: the Emax (Appendix A) was determined as 104%. In addition, the IC50 (pIC50, Appendix A) was 100 nM. In the case of `O=C(NCc1ccc(F)cc1)c1ccc2c(c1)N=C(c1ccc(Cl)cc1)c1ccccc1S2` [drawing 589], the IC50 under setting [1] was 3.16 nM. For the same compound, the Emax (Appendix A) was 106%.

For `O=C(NCCc1ccccc1)c1ccc2c(c1)N=C(N1CCCCC1)c1ccccc1S2` [drawing 1019], the IC50 under setting [1] was 25.1 nM. Besides, the Emax (Appendix A) worked out at 106%. Consider `CCONC(=O)c1ccc2c(c1)N=C(c1ccccc1Cl)c1ccccc1S2`, for which, for the setting “Appendix A”, the negative-log IC50 (pIC50) is 1.0 and the Emax stood at 19%. With `CC(C)CNC(=O)c1ccc2c(c1)N=C(c1ccc(Cl)cc1Cl)c1ccccc1S2`, under setting [1], the IC50 was 79.4 nM. For the same compound, the Emax (Appendix A) was found to be 87%. On the same counts, the results for `CCCNC(=O)c1ccc2c(c1)N=C(c1ccccc1F)c1ccccc1S2` are 39.8 nM and 97%.

On to `CCCC1=Nc2cc(C(=O)NCC(C)c3ccccc3)ccc2Sc2ccccc21` (centres unmarked) [drawing 735], for which, under setting [1], the IC50 is 7.94 nM. Further, the Emax (Appendix A) is 104%. For `Cc1csc(CNC(=O)c2ccc3c(c2)N=C(c2ccsc2)c2ccccc2S3)c1` [drawing 563] the same measures were 2.51 nM and 93%. For `CCCCNC(=O)c1ccc2c(c1)N=C(c1ccc(F)cn1)c1ccccc1S2` [drawing 709] the same measures were 7.94 nM and 101%.

Take `O=C(NN1CCCCC1)c1ccc2c(c1)N=C(c1ccc(Br)cc1)c1ccccc1S2` [drawing 993]: the IC50 under setting [1] was 25.1 nM. Where the note is “Appendix A”, the Emax worked out at 92%.

Take `O=C(c1ccc2c(c1)N=C(c1cccc(Cl)c1)c1ccccc1S2)N1CCCCC1`: the IC50 under setting [1] was 39.8 nM. For the same compound, the Emax (Appendix A) came out at 80%. In the case of `O=C(NCc1ccccc1Cl)c1ccc2c(c1)N=C(c1ccccc1F)c1ccccc1S2` [drawing 622], the Emax (Appendix A) is 72%. Where the note is “pIC50, Appendix A”, the IC50 is 63.1 nM.

For the compound `CC(C)CNC(=O)c1ccc2c(c1)N=C(c1ccc(Cl)cc1F)c1ccccc1S2` [drawing 613], under setting [1], the IC50 is 3.98 nM. Besides, the Emax (Appendix A) was 110%. Turning to `O=C(NN1CCCCCC1)c1ccc2c(c1)N=C(c1cccc(Cl)c1)c1ccccc1S2` [drawing 597], under setting [1], the IC50 is 3.98 nM. Also, the Emax (Appendix A) amounted to 95%.

In the case of `O=C(NCCc1ccccn1)c1ccc2c(c1)N=C(c1ccc(Cl)cc1)c1ccccc1S2` [drawing 1005], under setting [1], the IC50 was 25.1 nM. For the same compound, under “Appendix A”, the “% Inhibition” value is given as 92%. As to `CCCNC(=O)c1ccc2c(c1)N=C(c1ccc(Cl)cc1)c1ccccc1S2` [drawing 969], the IC50 under setting [1] was 20 nM. Besides, where the note is “Appendix A”, the “% Inhibition” value came to 105%. As to `CCCCNC(=O)c1ccc2c(c1)N=C(c1ccc(Cl)cc1)c1ccccc1S2(=O)=O`, under setting [1], the IC50 is 63.1 nM. Also, the Emax (Appendix A) was determined as 106%. Regarding `CC(C)NC(=O)c1ccc2c(c1)N=C(c1cccc(F)c1)c1ccccc1S2` [drawing 1155], the IC50 under setting [1] is 39.8 nM. Besides, the Emax (Appendix A) is 104%. On the same counts, the results for `Clc1ccc(C2=Nc3cc(-c4ncc[nH]4)ccc3Sc3ccccc32)cc1` [drawing 846] are 158 nM and 109%. For `Cc1ccc(CNC(=O)c2ccc3c(c2)N=C(c2ccsc2)c2ccccc2S3)o1` [drawing 803] the same measures were 10 nM and 94%. For `O=C(NCc1cccnc1)c1ccc2c(c1)N=C(c1ccc(Br)cc1)c1ccccc1S2` [drawing 1007] the same measures were 25.1 nM and 106%. Turning to `CCCCNS(=O)(=O)c1ccc2c(c1)N=C(c1ccc(Cl)cc1)c1ccccc1S2` [drawing 875], the IC50 under setting [1] was 15.8 nM. The Emax (Appendix A) was found to be 106%.

For `O=C(NN1CCCCC1)c1ccc2c(c1)N=C(Nc1ccccc1)c1ccccc1S2`, the IC50 under setting [1] is 2000 nM. The Emax (Appendix A) worked out at 92%.
